Patent US11628160B2, “Compositions and methods for treating brain injury” (Azevan Pharmaceuticals, Inc., priority 2017, dated 2023)
Blank lines part the entries; values can stand above or below the compound they belong to.

Assays:
human V1a receptor [1] = molecular target: T1, human V1a receptor (Homo sapiens, UniProt P37288); assay: Inhibition of phosphatidylinositol turnover (V1a); assay type: cell-based; conditions: hV1a cells
T1 construct: host or cells: CHO cells
Text: EXAMPLE. Inhibition of phosphatidylinositol turnover (V1a). The physiological effects of vasopressin are mediated through specific G-protein coupled receptors. The V1aR is coupled to the Gq/G11 family of G proteins and mediates phosphatidylinositol turnover. The agonist or antagonist character of the compounds of the invention may be determined by their ability to inhibit vasopressin-mediated turnover of phosphatidylinositol by the procedure described in the following paragraphs.
Cell culture and labeling of cells. Three days prior to the assay, near-confluent cultures of hV1a or hV1b cells were dissociated and seeded in 6-well tissue culture plates, about 100 wells being seeded from each 75 cm^2 flask (equivalent to 12:1 split ratio). Each well contained 1 mL of growth medium with 2 μCi of [^3H]myo-inositol (American Radiolabeled Chemicals, St. Louis, Mo., USA).
Incubations (V1a and V1b). All assays were in triplicate except for basal and 10 nM AVP (both n=6). AVP ((arginine vasopressin), Peninsula Labs, Belmont, Calif., USA (#8103)) was dissolved in 0.1N acetic acid. Test agents were dissolved in DMSO and diluted in DMSO to 200 times the final test concentration. […] The order of incubations was randomized. Incubations were initiated by removing the prelabeling medium, washing the monolayer once with 1 mL of 0.9% NaCl, and transferring the contents of the assay tubes to corresponding wells. The plates were incubated for 1 hour at 37° C. Incubations were terminated by removing the incubation medium and adding 500 μL of ice cold 5% (w/v) trichloroacetic acid and allowing the wells to stand for 15 min.
Measurement of [^3H]inositol phosphates (V1a and V1b). BioRad Poly-Prep Econo-Columns were packed with 0.3 mL of AG 1 X-8 100-200 formate form resin. Resin was mixed 1:1 with water and 0.6 mL added to each column. Columns were then washed with 10 mL water. Scintillation vials (20 mL) were placed under each column. For each well, the contents were transferred to a minicolumn, after which the well was washed with 0.5 mL distilled water, which was also added to the minicolumn. The columns were then washed twice with 5 mL of 5 mM myo-inositol to elute free inositol. Aliquots (1 mL) were transferred to 20 mL scintillation vials and 10 mL of Beckman Ready Protein Plus added. After the myo-inositol wash was complete, empty scintillation vials were placed under the columns, and [^3H]inositol phosphates were eluted with three additions of 1 mL 0.5 M ammonium formate containing 0.1 N formic acid. […] Inositol lipids were measured by adding 1 mL of 2% sodium dodecyl sulfate (SDS) to each well, allowing the wells to stand for at least 30 min., and transferring the solution to 20 mL scintillation vials, to which 10 mL Beckman Ready Protein Plus scintillation fluid was then added. Samples were counted in a Beckman LS 3801 liquid scintillation counter for 10 min. Total inositol incorporation for each well was calculated as the sum of free inositol, inositol phosphates, and inositol lipids.
Data analysis (V1a and V1b): concentration-inhibition experiments. Concentration-response curves for AVP and concentration-inhibition curves for test agents versus 10 nM AVP were analyzed by nonlinear least-squares curve-fitting to a 4-parameter logistic function. […] The curve-fitting was weighted under the assumption that the standard deviation was proportional to dpm of radioactivity. […]

V1b receptor = molecular target: T2, V1b receptor (Homo sapiens, UniProt P47901); assay: Human or rat vasopressin V1b cell-based receptor binding assay; conditions: selectivity table; read-out: inhibition data Ki, V1b
T2 construct: expressed in transfected cells; host or cells: CHO-K1 (ATCC), vector PCI-neo
T2 sequence (P47901 1-424): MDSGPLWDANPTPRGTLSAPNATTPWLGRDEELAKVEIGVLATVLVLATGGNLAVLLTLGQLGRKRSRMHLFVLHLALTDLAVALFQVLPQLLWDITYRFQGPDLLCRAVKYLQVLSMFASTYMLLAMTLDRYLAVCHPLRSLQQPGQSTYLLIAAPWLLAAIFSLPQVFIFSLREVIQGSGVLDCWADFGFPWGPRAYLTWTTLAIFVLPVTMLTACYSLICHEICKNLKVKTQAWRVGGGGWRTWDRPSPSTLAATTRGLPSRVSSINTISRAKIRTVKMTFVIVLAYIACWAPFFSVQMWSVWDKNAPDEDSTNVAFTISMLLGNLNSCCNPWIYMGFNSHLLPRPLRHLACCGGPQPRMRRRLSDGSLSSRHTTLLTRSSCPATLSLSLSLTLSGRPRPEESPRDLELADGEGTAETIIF
Text: EXAMPLE. Human vasopressin V1b receptor-expressing cells. Human vasopressin receptor 1b (hV1b) cDNA (see, Lolait et al., “Extrapituitary expression of the rat V1b vasopressin receptor gene” Proc. Natl. Acad. Sci. USA. 92:6783-7 (1995); de Keyzer et al., “Cloning and characterization of the human V3(V1b) pituitary vasopressin receptor” FEBS Lett. 356:215-20 (1994); Sugimoto et al., “Molecular cloning and functional expression of a cDNA encoding the human V1b vasopressin receptor” J. Biol. Chem. 269:27088-92 (1994)) was inserted into a mammalian cell expression vector PCI-neo (Promega) at EcoR1 site. The recombinant plasmid carrying hV1b cDNA was identified from transformed E. Coli clones and used for the transfection of Chinese hamster ovary cell (CHO-K1, ATCC). Two micrograms of hV1b receptor DNA was introduced into 10^5 CHO cells cultured in 6-well plate, using Fugene-6 mediated transfection technique (Boehringer Mannheim). Twenty-four hrs post transfection, Cells were then cultured under selection of G-418 (0.25 mg/ml) supplemented to the culture medium. Three days later, limited dilution was carried out to obtain single cell clones in 96-well plates. […]
EXAMPLE. […] Samples were counted in a liquid scintillation counter (Beckman LS3801). IC50 and Ki values were calculated using Prism Curve fitting software. […]

V2 = V2 (Homo sapiens, UniProt P30518); assay: V2 receptor inhibition data (Ki); assay type: binding; conditions: selectivity table
V2, sequence (P30518 whole entry): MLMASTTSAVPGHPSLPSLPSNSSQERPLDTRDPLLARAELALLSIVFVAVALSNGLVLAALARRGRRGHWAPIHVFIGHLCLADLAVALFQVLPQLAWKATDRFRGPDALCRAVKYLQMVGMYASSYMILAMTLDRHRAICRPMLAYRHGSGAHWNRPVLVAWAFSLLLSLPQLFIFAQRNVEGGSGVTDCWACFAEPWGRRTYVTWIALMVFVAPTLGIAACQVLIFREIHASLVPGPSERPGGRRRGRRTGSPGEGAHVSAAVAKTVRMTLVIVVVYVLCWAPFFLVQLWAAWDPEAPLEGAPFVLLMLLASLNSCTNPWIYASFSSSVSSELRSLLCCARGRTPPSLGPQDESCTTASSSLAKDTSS

Pharmacokinetics = assay type: in vivo; conditions: b.i.d. dosing
Text: EXAMPLE. Pharmacokinetics. Compounds described herein are rapidly absorbed after oral administration. Compounds described herein cross the blood-brain-barrier and achieve therapeutically effective concentrations in the CNS. Compounds described herein may be dosed according to a wide variety of protocols, including but not limited to q.d., b.i.d., and the like.

human V1a receptor [2] = molecular target: T1, human V1a receptor; assay: Human vasopressin V1a receptor binding assay; conditions: hV1a cell line, [3H]-AVP
Experimental: EXAMPLE. Human vasopressin V1a receptor binding assay. A cell line expressing the human V1a receptor in CHO cells (henceforth referred to as the hV1a cell line) was obtained from Dr. Michael Brownstein, NIMH, Bethesda, Md., USA. The hV1a cDNA sequence is described by Thibonnier et al., Journal of Biological Chemistry, 269, 3304-3310 (1994), and the expression method was the same as described by Morel et al. (1992). The hV1a cell line was grown in alpha-MEM with 10% fetal bovine serum and 250 ug/ml G418 (Gibco, Grand Island, N.Y., USA). For competitive binding assay, hV1a cells were plated into 6-well culture plate at 1:10 dilution from a confluency flask, and maintained in culture for at least two days. Culture medium was then removed, cells were washed with 2 ml binding buffer (25 mM Hepes, 0.25% BSA, 1×DMEM, PH=7.0). To each well, 990 μl binding buffer containing 1 nM 3H-AVP was added, and followed by 10 μl series diluted Example compounds dissolved in DMSO. […] 100 nM cold AVP (Sigma) was used to assess non-specific binding. Cells were incubated for 45 minutes at 37° C., assay mixture was removed and each well was washed three times with PBS (pH=7.4). 1 ml 2% SDS was added per well and plates were let sit for 30 minutes. The whole content in a well was transferred to a scintillation vial. Each well was rinsed with 0.5 ml PBS which was then added to the corresponding vial. Scintillation fluid (Ecoscint, National Diagnostics, Atlanta, Ga.) was then added at 3 ml per vial. Samples were counted in a liquid scintillation counter (Beckman LS3801). IC50 values were calculated by Prism Curve fitting software.
All of the alkanedioic esters and amides exemplified in the foregoing examples dissolved in DMSO were tested in this assay. Binding curves were generated according to methods described by Thibonnier et al. (1994). [^3H]-AVP was added to the hV1a cell cultures followed by 10-fold dilutions of each test compound.

T1 sequence (P37288 whole entry): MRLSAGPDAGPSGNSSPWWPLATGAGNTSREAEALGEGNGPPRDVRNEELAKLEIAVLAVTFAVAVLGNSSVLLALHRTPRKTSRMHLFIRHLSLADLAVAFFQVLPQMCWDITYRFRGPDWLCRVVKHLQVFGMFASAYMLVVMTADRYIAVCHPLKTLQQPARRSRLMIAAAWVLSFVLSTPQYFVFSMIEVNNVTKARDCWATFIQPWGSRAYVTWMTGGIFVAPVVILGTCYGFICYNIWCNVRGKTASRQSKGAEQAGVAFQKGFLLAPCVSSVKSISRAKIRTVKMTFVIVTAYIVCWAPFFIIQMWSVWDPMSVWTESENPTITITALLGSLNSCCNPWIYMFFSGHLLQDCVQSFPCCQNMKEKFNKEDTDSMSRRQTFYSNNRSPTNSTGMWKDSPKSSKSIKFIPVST

agonist or antagonist character (inhibition of vasopressin-mediated phosphatidylinositol turnover) (human V1a receptor [1]): vasopressin V1a antagonists
Structure (SMILES): O=C(NCc1cccc(C(F)(F)F)c1)[C@H](CCC(=O)N1CCN(CCc2ccccc2)CC1)N1C(=O)[C@@H](N2C(=O)OC[C@@H]2c2ccccc2)[C@H]1C=Cc1ccccc1 (single isomer, unassigned) [Example 35]

agonist or antagonist character (inhibition of vasopressin-mediated phosphatidylinositol turnover) (human V1a receptor [1]): vasopressin V1a antagonists
Structure (SMILES): O=C(NCc1cccc(C(F)(F)F)c1)C(CCC(=O)N1CCN(C2CCCCC2)CC1)N1C(=O)C(N2C(=O)OCC2c2ccccc2)C1C=Cc1ccccc1 (single isomer, unassigned) [Example 110]

agonist or antagonist character (inhibition of vasopressin-mediated phosphatidylinositol turnover) (human V1a receptor [1]): vasopressin V1a antagonists
Structure (SMILES): O=C(NCc1cccc(C(F)(F)F)c1)C(CC(=O)N1CCC(N2CCCCC2)CC1)N1C(=O)C(N2C(=O)OCC2c2ccccc2)C1C=Cc1ccccc1 (stereo not shown) [Example 44]

agonist or antagonist character (inhibition of vasopressin-mediated phosphatidylinositol turnover) (human V1a receptor [1]): vasopressin V1a antagonists
Structure (SMILES): O=C(NCc1cccc(C(F)(F)F)c1)C(CCC(=O)N1CCC(N2CCCCC2)CC1)N1C(=O)C(N2C(=O)OCC2c2ccccc2)C1C=Cc1ccccc1 (stereo not shown) [Example 88]

agonist or antagonist character (inhibition of vasopressin-mediated phosphatidylinositol turnover) (human V1a receptor [1]): vasopressin V1a antagonists
Structure (SMILES): O=C(NCc1cccc(C(F)(F)F)c1)C(CC(=O)N1CCC(N2CCCCC2)CC1)N1C(=O)C(N2C(=O)OCC2c2ccccc2)C1C=Cc1ccccc1 (stereo not shown) [Example 133]

Ki (V1b receptor): > 1 µM
Ki (V2): > 1 µM
T1/2 (Pharmacokinetics): improved
accumulation (Pharmacokinetics): 1.7 fold
Structure (SMILES): C[C@@H](NC(=O)[C@@H](CC(=O)N1CCC(N2CCCCC2)CC1)N1C(=O)[C@@H](N2C(=O)OC[C@@H]2c2ccccc2)[C@H]1/C=C/c1ccccc1)c1ccccc1 [Example 224, 2(R)-[[4-(Piperidinyl)piperidinyl]carbonylmethyl]-2-[3(S)-(4(S)-phenyloxazolidin-2-on-3-yl)-4(R)-(2-styryl)azetidin-2-on-1-yl]acetic acid N—[(R)-α-methylbenzyl]amide]

Ki (V1b receptor): > 1 µM
IC50 (human V1a receptor [2]): 0.00186 to 0.00213 µM
Ki (human V1a receptor [2]): 0.00114 to 0.0013 µM
Ki (V2): > 1 µM
Structure (SMILES): CN(Cc1cccc(C(F)(F)F)c1)C(=O)[C@@H](CC(=O)N1CCC(N2CCCCC2)CC1)N1C(=O)[C@@H](N2C(=O)OC[C@@H]2c2ccccc2)[C@H]1/C=C/c1ccccc1 [Example 225, 2(R)-[[4-(Piperidinyl)piperidinyl]carbonylmethyl]-2-[3(S)-(4(S)-phenyloxazolidin-2-on-3-yl)-4(R)-(2-styryl)azetidin-2-on-1-yl]acetic acid N-methyl-N-(3-trifluoromethylbenzyl)amide]
